Experiments:
[1] = tested on: collagen-induced platelet aggregation; test: Platelet aggregation tests; format: cell-based, human (healthy volunteers); conditions: collagen 2.5 μg/ml, 10 minutes' incubation; for ED50 (platelet aggregation): human blood
Protocol: In these tests, blood samples were taken from healthy volunteers with a platelet content of at least 300,000/mm^3. The method described by Born (Born J. V. R. J. Physiol., 26:25 1963) was used to induce platelet aggregation.
Platelet aggregation was induced by collagen (2.5 μg/ml) and measured both at the beginning and after 10 minutes' incubation with propionyl L-carnitine, acetyl L-carnitine, Ginkgo biloba extract or with these compounds in various combinations.

[2] = tested on: pitressin-induced coronary spasm; test: Coronary spasm tests (pitressin); format: in vivo, rat; conditions: oral, three days before pitressin i.v.; Ginkgo biloba extract 100 mg/kg, carnitines or carnitine mixture 300 mg/kg; number of rats
Source text: Enhancement of the activity of Ginkgo biloba when combined with carnitines was also found on evaluating the effects of the administration of these substances alone and in combination on pitressin-induced experimental coronary spasm.
As is known, intravenous injection of 1 v/kg of pitressin in the rat causes characteristic electrocardiographic abnormalities which are most noticeable in lead II as affecting the T wave (asphyxial T wave) due to the diminished myocardial oxygenation related to the reduced coronary flow caused by the pitressin-induced vascular spasm.
In these tests, before being injected with pitressin, the rats received oral administrations for three days consecutively of 100 mg/kg of Ginkgo biloba extracts, or of 300 mg/kg of carnitines alone or carnitine mixture, or of carnitine or carnitine mixture in combination with Ginkgo biloba.

[3] = tested on: PAF-induced oedema of the rat paw; test: PAF-induced inflammatory reaction tests (paw oedema, plethysmographic); format: in vivo; conditions: 300 mg/kg i.p. one hour before PAF 2 μg into rear paw, rats
Protocol: In these experiments, a solution containing PAF was injected into the paws of rats according to the method described by Burstein (Burstein S. H., J. Pharmacol. Exptl. Ther., 251:531, 1989).
As is known, PAF injected into the rat paw causes the release of numerous phlogogenic substances, including prostaglandins, which gives rise in a short time to the onset of marked oedema (Bonnet J., J. Agent Actions, 11:559, 1981).
Using the method described by Goldenberg (Goldenberg M. M., Prostaglandins, 28:271, 1984) and Silva (Silva P. M. R., Inflammation, 10:393, 1986), a solution of PAF at an overall dose of 2 μg was injected into the rear paws of rats, and the ensuing oedematous reaction was evaluated with a plethysmographic method according to the technique described by Ferreira (Ferreira S. H., J. Pharmacol., 127:83, 1979).
The tests were conducted in various groups of rats, one of which was a control group, while the others received intraperitoneal administrations, one hour before to PAF injection, of acetyl L-carnitine (300 mg/kg), or propionyl L-carnitine (300 mg/kg), or of a combination of L-carnitine (75 mg/kg), acetyl L-carnitine (75 mg/kg) and propionyl L-carnitine (75 mg/kg), or of a Ginkgo biloba extract (100 mg/kg), or of the Ginkgo biloba extract plus carnitines.

[4] = tested on: pheochromocytoma cells (PC-12); test: Tests of H2O2 toxicity on pheochromocytoma cells (PC-12); format: cell-based; conditions: 10^−8 M; PC-12, H2O2 30 minutes, 24 hours of observation; H2O2 alone approximately 38%
Protocol: In these tests, a pheochromocytoma cell (PC-12) culture was used containing 3×10^5 M cells/ml which was submitted for 30 minutes to 0.1 g mM H2O2.

[5] = tested on: PAF-induced mortality; test: PAF-induced mortality tests; format: in vivo, albino mice; conditions: 300 mg/kg i.p. one hour before PAF 20 μg/kg i.v., mice
Protocol: Platelet-activating factor (PAF) is an acetylated alkyl phosphoglyceride whose release in the body, under various stimuli, causes circulatory-type reactions related mainly to increased capillary permeability, with consequent extravasation of blood, increased platelet aggregation and thrombosis, reduced coronary flow, release of inflammatory factors, lysosomal enzymes and superoxides.
When administered intravenously (20 μg/kg) to animals, PAF causes the death of the animals treated with it in a short space of time, i.e. approximately one hour, mainly as a result of cardiocirculatory collapse.
A series of tests was conducted using the method described by Young (Young J. N., Prostaglandins 30:545, 1985) and by Myers (Myers H., Br. J. Pharmacol., 79:595, 1983) in order to assess whether Ginkgo biloba extracts (whose anti-PAF activity is known) protect animals injected with PAF against death and whether the carnitines (particularly propionyl L-carnitine, whose vascular regulatory activity is known) are capable of increasing the protective effect against PAF.
The tests were conducted on albino mice with a mean weight of 25 g divided into various groups, the first of which served as control group and received intravenous injections of PAF at the dose of 20 μg/kg, while the other groups were administered intraperitoneal injections, one hour before to PAF administration, either of Ginkgo biloba extract, or of the various carnitines alone or in combination, or of Ginkgo biloba plus carnitines.

[6] = tested on: cerebral ischaemia induced by endothelin-1 (MCA occlusion); test: Tests of protection against experimentally induced cerebral ischaemia (endothelin-1, MCA occlusion); format: in vivo; conditions: rat; i.v. 5 minutes after endothelin-1; propionyl/acetyl L-carnitine 50 mg/kg, Ginkgo biloba 10 mg/kg; checked after 3 days
Protocol: Since a major responsible for causing damage following cerebral ischaemia is known to be the production of superoxides and free radicals (Litton S. A., Nature, 364:625, 1993), in these tests cerebral ischaemia was brought about by occluding the middle cerebral artery (MCA) of the rat according to the method described by Scharkey (Scharkey Y., Nature, 371:336, 1994) by injecting to the anaesthetized animal endothelin-1 (120 pml), for a duration of 3 minutes with a microcannula placed stereotactically in the pyriform cortex at the level of the middle cerebral artery (MCA).
The ischaemic area thus produced was checked after 3 days with transcardiac perfusion of paraformaldehyde solution (4% in PBS).
After removing the brain and placing it in a fixator containing 10% saccharose, cryostat sections were fixed in methyl violet and examined under the optical microscope.
The administration of propionyl L-carnitine (50 mg/kg), acetyl L-carnitine (50 mg/kg) and of a solution of Ginkgo biloba (10 mg/kg), or these compounds in combination, was performed intravenously 5 minutes following injection of endothelin-1.
The volume of the infarcted area was calculated according to the method described by Park (Park C., Anns. Neurol., 20:150, 1989).

Structure (SMILES)	reduction of platelet aggregation (in words) [1]	ED50 (platelet aggregation) [1] [µg]	Rats not protected [2]	Rats protected [2]	Rats weakly protected [2]	% reduction of oedema [3] [%]	survival of the cells [4] [%]	% mortality 1 h after PAF injection [5]	magnitude of ischaemia (volume mm^3) due to MCA occlusion [6] [mm^3]
CC(=O)O[C@H](CC(=O)[O-])C[N+](C)(C)C [Acetyl L-carnitine, acetyl L-carnitine]	only to a slight extent	26.4 ± 0.34	3	1	3	15	55	80/100	21.6 ± 1.8
C[N+](C)(C)C[C@H](O)CC(=O)[O-] [L-carnitine]			3	0	1	10		90/100	
CCC(=O)O[C@H](CC(=O)[O-])C[N+](C)(C)C [Propionyl L-carnitine, propionyl L-carnitine]	only to a slight extent	30.5 ± 0.41	4	2	3	35	45	80/100	32.6 ± 2.4

From patent US6641849B1, “Composition for the prevention and/or treatment of circulatory disorders, comprising derivatives of L-carnitine and extracts of ginkgo biloba” (Sigma-Tau HealthScience S.p.A., priority 1999, dated 2003)
